Laboratory results: BindingDB's records for patent US9108978 (Monash University, 2015)

Target: T1, Bifunctional ligase/repressor BirA (Staphylococcus aureus, UniProt A0A3A5LBF0)
T1 sequence (A0A3A5LBF0 whole entry): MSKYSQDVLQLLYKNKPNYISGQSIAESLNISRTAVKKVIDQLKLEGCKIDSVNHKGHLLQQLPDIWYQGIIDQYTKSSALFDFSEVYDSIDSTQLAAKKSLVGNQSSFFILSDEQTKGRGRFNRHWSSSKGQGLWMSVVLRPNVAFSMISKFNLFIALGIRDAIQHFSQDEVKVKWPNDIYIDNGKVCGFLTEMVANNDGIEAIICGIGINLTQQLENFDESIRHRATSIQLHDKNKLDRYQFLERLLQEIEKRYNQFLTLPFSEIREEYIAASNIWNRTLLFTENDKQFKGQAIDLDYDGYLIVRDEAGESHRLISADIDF
Assay: Enzyme Inhibition Assay
Settings: pH 8; 37 °C
Protocol: The reaction was initiated by the addition of BPL to a final concentration of 4 nM. After 20 minutes at 37 C., 4 uL aliquots of the reaction were spotted onto Whatman paper pre-treated with biotin and trichloroacetic acid. The filters were washed twice with 10% v/v ice-cold trichloroacetic acid and once with ethanol before air-drying. Quantitation of protein-bound radiolabelled biotin was performed by liquid scintillation. One unit of enzyme activity was defined by the amount of BPL required to incorporate 1 nmol of biotin per minute. The IC50 value of each compound was determined.

`Nc1ncnc2c1ncn2[C@@H]1O[C@H](COP(=O)(O)OCCCCC[C@@H]2SC[C@@H]3NC(=O)N[C@@H]32)[C@@H](O)[C@H]1O` [US9108978, 2.02] was tested. Which IC50 did it give?
The IC50 was 0.203 µM.

What about the Ki of the same compound?
The Ki was 0.03 µM.
